In US4871661A, “Process for testing the carcinogenicity of a material or the presence of cancer-inducing factors in an environment” (priority 1985, dated 1989):
Like-named read-outs stand apart in the source and are kept apart here.

Experiments:
[1] = system: cancer-associated phosphoprotein; assay: ELISA assay of purified 60K plasma protein fraction from rats exposed to test compound; format: in vivo, rat (Sprague-Dawley strain)
Method: This example illustrates a process of the present invention in which the assay for the cancer-associated phosphoprotein is effected by means of an ELISA test.
Samples of the purified 60K protein fraction from the Sepharose CL-6B column used in Example 1 above were subjected to an ELISA assay. […] Also subjected to the same ELISA assay were purified protein fractions from the control rats and from a rat suffering from a hepatoma 7777 tumor.
The ELISA assay was conducted in the following manner. A sample of the cancer-associated phosphoprotein prepared in the manner described in Example 1 of the aforementioned parent application Ser. No. 554,439 was bound to a well in a plastic tray, and the well thereafter washed thoroughly. A polyclonal rabbit antibody serum prepared as described in Example 2 of the aforementioned parent application Ser. No. 554,439 was then mixed with the protein sample to be assayed and the resultant mixture incubated at 37° C. for 30 minutes. The mixture was then added to the well containing the cancer-associated phosphoprotein, and the tray incubated for one hour at 37° C., then washed thoroughly. Following this washing, there was added to the well a goat anti-rabbit IgG antibody serum conjugated to horseradish peroxidase enzyme, and the tray was incubated for one hour at 37° C. then washed thoroughly. The substrate for the horseradish peroxidase enzyme, namely 2,2-azino-di(3-ethylbenzthiazoline sulfonic acid) was added to the well and the tray incubated to 15 minutes at room temperature. The color development was then stopped by addition of a 2 mM solution of sodium azide and the intensity of the color in the wells determined using a spectrophotometer at […].
To determine the maximum possible optical density, a control test was run in which the test sample was replaced with a buffer containing no cancer-associated phosphoprotein; this optical density represents the maximum possible reaction of uninhibited antibody binding to the bound cancer-associated phosphoprotein. […] The optical density of a well containing as a control sample an equivalent fraction of normal rat plasma free of cancer-associated phosphoprotein is designated 0% inhibition; the optical density of this control sample should be close to that of the sample using the buffer solution The samples tested for the presence of the cancer-associated phosphoprotein are designated positive when the optical density exceeds that of the control value by two standard deviations. The concentration of cancer-associated phosphoprotein is directly related to the percentage inhibition and can be compared to that of the standard solution of the cancer-associated phosphoprotein.

[2] = system: cancer-associated phosphoprotein; conditions: for induction of the cancer-associated phosphoprotein in the plasma: rat plasma, result in words
rat = conditions: cited from earlier work
transformed cells = conditions: some types of transformed cells; cited from earlier work
[3] = system: cancer-associated phosphoprotein; format: in vivo, rat; conditions: acute or chronic treatment of rats
Source text: Further experiments indicate that release of the cancer-associated phosphoprotein into the plasma was not induced upon induction of liver regeneration in the rat by partial hepatectomy, nor by acute or chronic treatment of the rats with the non-carcinogenic tumor promoter phenobarbital.

[4] = ELISA inhibition, plasma fraction of treated rat, standard phosphoprotein solution = 100%, normal rat plasma fraction = 0%
[5] = 200 micromoles/kg, intraperitoneal, plasma ~21 days after exposure, control subtracted
[6] = 160 micromoles/kg, intraperitoneal, plasma ~21 days after exposure, control subtracted
[7] = 210 micromoles/kg, intraperitoneal, plasma ~21 days after exposure, control subtracted
[8] = 600 micromoles/kg, intraperitoneal, plasma ~21 days after exposure, control subtracted
[9] = 1 millimole/kg, intraperitoneal, plasma ~21 days after exposure, control subtracted

CNNC [1,2-dimethylhydrazine]
Percentage Inhibition [1, 4]: 79%
RNA-releasing Activity ([2]; 560 micromoles/kg, intraperitoneal, plasma ~21 days after exposure, control subtracted): 5.71 percent nuclear counts per min

O=[N+]([O-])c1ccc2ccc3cccc4ccc1c2c34 [1-Nitropyrene]
Percentage Inhibition [1, 4]: 74%
RNA-releasing Activity ([2]; 105 micromoles/kg, intraperitoneal, plasma ~21 days after exposure, control subtracted): 5.30 percent nuclear counts per min

Clc1cc2c(cc1Cl)Oc1cc(Cl)c(Cl)cc1O2 [2,3,7,8-Tetrachlorodibenzo-p-dioxine]
RNA-releasing Activity ([2]; 0.125 micromoles/kg, intraperitoneal, plasma ~21 days after exposure, control subtracted): 0.00 percent nuclear counts per min
induction of the cancer-associated phosphoprotein in the plasma [2]: do not induce significant quantities of the cancer-associated phosphoprotein
toxicity in the rat (rat): very potent toxins in the rat

CC(=O)Nc1ccc2c(c1)Cc1ccccc1-2 [2-Acetylaminofluorene]
Percentage Inhibition [1, 4]: 87%
RNA-releasing Activity [2, 5]: 5.11 percent nuclear counts per min

Cc1c(F)ccc2ccc3cc4ccccc4c(C)c3c12 [2-Fluoro-1,12-dimethylbenz[a]anthracene]
RNA-releasing Activity [2, 6]: 0.10 percent nuclear counts per min

Nc1ccc2ccccc2c1 [2-Naphthylamine]
RNA-releasing Activity ([2]; 500 micromoles/kg, intraperitoneal, plasma ~21 days after exposure, control subtracted): 3.29 percent nuclear counts per min

Cc1ccc2cc3c(ccc4ccccc43)c3c2c1CC3 [3-Methylcholanthrene]
RNA-releasing Activity [2, 6]: 5.62 percent nuclear counts per min

Cc1c2ccccc2c(C)c2c1ccc1ccccc12 [7,12-Dimethylbenz[a]anthracene]
RNA-releasing Activity [2, 6]: 6.42 percent nuclear counts per min

c1ccc2nc3ccccc3cc2c1 [Acridine]
Percentage Inhibition [1, 4]: 2%
RNA-releasing Activity ([2]; 15 micromoles/kg, intraperitoneal, plasma ~21 days after exposure, control subtracted): 0.00 percent nuclear counts per min

COc1cc2c(c3oc(=O)c4c(c13)CCC4=O)[C@@H]1C=CO[C@@H]1O2 [Aflatoxin B1]
RNA-releasing Activity ([2]; rat, in vivo): 4.37

COc1cc2c(c3oc(=O)c4c(c13)CCOC4=O)[C@@H]1CCO[C@@H]1O2 [Aflatoxin G2]
RNA-releasing Activity ([2]; rat, in vivo, ip): 3.80

c1ccc2cc3ccccc3cc2c1 [Anthracene]
RNA-releasing Activity [2, 6]: 0.17 percent nuclear counts per min

c1ccc2cc3c(ccc4ccccc43)cc2c1 [Benz[a]anthracene]
RNA-releasing Activity [2, 6]: 4.92 percent nuclear counts per min

c1ccc2c(c1)cc1ccc3cccc4ccc2c1c34 [Benzo[a]pyrene]
RNA-releasing Activity [2, 7]: 7.73 percent nuclear counts per min

c1ccc2c(c1)c1cccc3ccc4cccc2c4c31 [Benzo[e]pyrene]
RNA-releasing Activity [2, 7]: 3.37 percent nuclear counts per min

Cn1c(=O)c2c(ncn2C)n(C)c1=O [Caffeine]
Percentage Inhibition ([1]; rat, in vivo): 14
RNA-releasing Activity ([2]; rat, in vivo, ip): 0.07

ClC(Cl)(Cl)Cl [Carbon tetrachloride, carbon tetrachloride]
Percentage Inhibition ([1]; ELISA inhibition, plasma fraction of treated rat, standard phosphoprotein solution = 100%, normal rat plasma fraction = 0%, listed as Carbon tetrachloride-1): 1%
Percentage Inhibition ([1]; ELISA inhibition, plasma fraction of treated rat, standard phosphoprotein solution = 100%, normal rat plasma fraction = 0%, listed as Carbon tetrachloride-2): 10%

CN(C)C=O [Dimethylformamide]
RNA-releasing Activity [2, 5]: 1.30 percent nuclear counts per min
induction of the cancer-associated phosphoprotein in the plasma [2]: induced significant quantities
ability to induce differentiation of transformed cells (transformed cells): reversably induce the differentiation of some types of transformed cells

CCOC(N)=O [Ethyl carbamate (urethane), Ethyl carbamate]
RNA-releasing Activity ([2]; 11.2 millimoles/kg, intraperitoneal, plasma ~21 days after exposure, control subtracted): 3.80 percent nuclear counts per min

c1ccc2c(c1)Cc1ccccc1-2 [Fluorene]
RNA-releasing Activity [2, 6]: 0.14 percent nuclear counts per min

CCN(N=O)C(N)=O [N--Ethyl-N--nitrosourea]
RNA-releasing Activity [2, 8]: 4.50 percent nuclear counts per min

CN(N=O)C(N)=O [N--Methyl-N--nitrosourea]
RNA-releasing Activity ([2]; 440 micromoles/kg, intraperitoneal, plasma ~21 days after exposure, control subtracted): 4.69 percent nuclear counts per min

CCCCN(CCCC)N=O [N--Nitroso-N,N--dibutylamine]
Percentage Inhibition [1, 4]: 75%
RNA-releasing Activity ([2]; 760 micromoles/kg, intraperitoneal, plasma ~21 days after exposure, control subtracted): 5.44 percent nuclear counts per min

CCN(CC)N=O [N--Nitroso-N,N--diethylamine]
RNA-releasing Activity [2, 9]: 4.21 percent nuclear counts per min

CN(C)N=O [N--Nitroso-N,N--dimethylamine]
RNA-releasing Activity ([2]; 135 micromoles/kg, intraperitoneal, plasma ~21 days after exposure, control subtracted): 3.40 percent nuclear counts per min

c1ccc2ccccc2c1 [Naphthalene]
Percentage Inhibition [1, 4]: 18%
RNA-releasing Activity [2, 9]: 0.12 percent nuclear counts per min

O=C(O)C(F)(F)C(F)(F)C(F)(F)C(F)(F)C(F)(F)C(F)(F)C(F)(F)C(F)(F)C(F)(F)F [Nonadecafluorodecanoic acid]
RNA-releasing Activity ([2]; 50 micromoles/kg, intraperitoneal, plasma ~21 days after exposure, control subtracted): 0.00 percent nuclear counts per min
induction of the cancer-associated phosphoprotein in the plasma [2]: do not induce significant quantities of the cancer-associated phosphoprotein
toxicity in the rat (rat): very potent toxins in the rat

CCC1(c2ccccc2)C(=O)NC(=O)NC1=O [Phenobarbital]
release of the cancer-associated phosphoprotein into the plasma [3]: not induced
RNA-releasing Activity ([2]; 80 micromoles/kg, intraperitoneal, plasma ~21 days after exposure, control subtracted): 0.08 percent nuclear counts per min

c1cc2ccc3cccc4ccc(c1)c2c34 [Pyrene]
RNA-releasing Activity [2, 6]: 0.05 percent nuclear counts per min

Cc1cc2nc3c(=O)[nH]c(=O)nc-3n(C[C@H](O)[C@H](O)[C@H](O)CO)c2cc1C [Riboflavin]
Percentage Inhibition [1, 4]: 11%
RNA-releasing Activity ([2]; 265 micromoles/kg, intraperitoneal, plasma ~21 days after exposure, control subtracted): 0.01 percent nuclear counts per min

C=CCc1ccc2c(c1)OCO2 [Safrole]
Percentage Inhibition [1, 4]: 80%
RNA-releasing Activity [2, 8]: 5.90 percent nuclear counts per min
